Target: T1, hCRTH2 (Homo sapiens, UniProt Q9Y5Y4)
T1 construct: expressed in transfected cells; host or cells: HEK (human embryonic kidney) cells expressing hCRTH2; membrane preparation
T1 sequence (Q9Y5Y4 1-395): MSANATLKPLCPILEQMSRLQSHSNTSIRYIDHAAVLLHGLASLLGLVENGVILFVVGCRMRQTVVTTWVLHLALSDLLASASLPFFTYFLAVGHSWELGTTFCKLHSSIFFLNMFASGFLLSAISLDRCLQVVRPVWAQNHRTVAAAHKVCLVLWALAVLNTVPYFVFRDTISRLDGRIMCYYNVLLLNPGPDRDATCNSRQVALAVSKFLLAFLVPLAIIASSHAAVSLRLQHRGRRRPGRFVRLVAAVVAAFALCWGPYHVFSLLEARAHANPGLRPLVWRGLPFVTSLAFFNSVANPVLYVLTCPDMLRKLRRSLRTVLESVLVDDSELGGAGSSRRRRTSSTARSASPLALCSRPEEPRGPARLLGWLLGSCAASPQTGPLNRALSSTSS
Test: Radioligand binding assay ([3H]PGD2 competition, HEK-hCRTH2 membranes)
Settings: [3H]PGD2 binding
In short: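 Competition against 3.0 nM [3H]PGD2 was run for 60 min at room temperature in pH 7.4 Tris-HCl buffer with EDTA, 2 mM MnCl2 and 1% DMSO, using 8-20 μg HEK-hCRTH2 membrane protein. 10 μM PGD2 set non-specific binding; filter-bound counts were read by scintillation.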

| Ki (rated A-E (Table A)) [nM] | Ki (values in text) [nM] | SMILES |
| --- | --- | --- |
| 0.1 to 2 |  | O=C(O)CCCCc1nc2cc(C(=O)N3CCCc4ccccc43)ccc2nc1-c1ccccc1 [15Bi, 5-[7-(3,4-dihydro-quinolin-1(2H)-ylcarbonyl)-3-phenylquinoxalin-2-yl]pentanoic acid] |
| 20.1 to 200 |  | CN(C(=O)c1ccc2nc(-c3ccccc3)c(CCCCC(=O)O)nc2c1)C1CCOC1 (stereo not shown) [15Bo, 5-{7-[methyl (tetrahydrofuran-3-yl)carbamoyl]-3-phenylquinoxalin-2-yl} pentanoic acid] |
| 0.1 to 2 |  | O=C(O)CCCCc1nc2cc(C(=O)NCc3ccc(C(F)(F)F)cc3)ccc2nc1-c1ccccc1 [15C, 5-(3-phenyl-7-{[4-(trifluoromethyl)benzyl]carbamoyl}quinoxalin-2-yl)pentanoic acid] |
| 0.1 to 2 |  | C[C@@H](NC(=O)c1ccc2nc(-c3ccccc3)c(CCCCC(=O)O)nc2c1)c1ccc(F)cc1 [15D, 5-(7-{[(1R)-1-(4-fluorophenyl)ethyl]carbamoyl}-3-phenyl-quinoxalin-2-yl)pentanoic acid] |
| 0.1 to 2 |  | C[C@H](NC(=O)c1ccc2nc(-c3ccccc3)c(CCCCC(=O)O)nc2c1)c1ccc(F)cc1 [15E, 5-(7-{[(1S)-1-(4-fluorophenyl)ethyl]carbamoyl}-3-phenylquinoxalin-2-yl)pentanoic acid] |
| 2.1 to 20 |  | O=C(O)CCCCc1nc2cc(C(=O)N[C@@H](c3ccccc3)C(F)(F)F)ccc2nc1-c1ccccc1 [15F, 5-(3-phenyl-7-{[(1S)-2,2,2-trifluoro-1-phenylethyl]carbamoyl}quinoxalin-2-yl) pentanoic acid] |
| 2.1 to 20 |  | O=C(O)CCCCc1nc2cc(C(=O)N[C@H](c3ccccc3)C(F)(F)F)ccc2nc1-c1ccccc1 [15G, 5-(3-phenyl-7-{[(1R)-2,2,2-trifluoro-1-phenylethyl]carbamoyl}quinoxalin-2-yl) pentanoic acid] |
| 20.1 to 200 | 152 | O=C(O)CCCCc1nc2cc(C(=O)N3CCC4(CC3)CNC4)ccc2nc1-c1ccccc1 [15H, 5-[7-(2,7-diazaspiro-[3.5]non-7-ylcarbonyl)-3-phenylquinoxalin-2-yl]pentanoic acid] |
| 2.1 to 20 |  | O=C(O)CCCCc1nc2cc(C(=O)N3CCNC(c4ccccc4)C3)ccc2nc1-c1ccccc1 (stereo not shown) [15J, 5-{3-phenyl-7-[(3-phenylpiperazin-1-yl)carbonyl]quinoxalin-2-yl}pentanoic acid] |
| 2.1 to 20 |  | O=C(O)CCCCc1nc2cc(C(=O)N3CCNC(Cc4ccccc4)C3)ccc2nc1-c1ccccc1 (stereo not shown) [15K, 5-{7-[(3-benzylpiperazin-1-yl)carbonyl]-3-phenyl-quinoxalin-2-yl}pentanoic acid] |
| 20.1 to 200 |  | CCN1CCN(C(=O)c2ccc3nc(-c4ccccc4)c(CCCCC(=O)O)nc3c2)CC1 [15L, 5-{7-[(4-ethylpiperazin-1-yl)carbonyl]-3-phenylquinoxalin-2-yl}pentanoic acid] |
| 20.1 to 200 |  | COCCN1CCN(C(=O)c2ccc3nc(-c4ccccc4)c(CCCCC(=O)O)nc3c2)CC1 [15M, 5-(7-{[4-(2-methoxy-ethyl)piperazin-1-yl]-carbonyl}-3-phenyl-quinoxalin-2-yl) pentanoic acid] |
| 2.1 to 20 |  | COc1ccc(C2CCN(C(=O)c3ccc4nc(-c5ccccc5)c(CCCCC(=O)O)nc4c3)C2)cc1 (stereo not shown) [15N, 5-(7-{[3-(4-methoxy-phenyl)pyrrolidin-1-yl]-carbonyl}-3-phenyl-quinoxalin-2-yl) pentanoic acid] |
| 0.1 to 2 |  | O=C(O)CCCCc1nc2cc(C(=O)N3CCC(c4cccc(Cl)c4)C3)ccc2nc1-c1ccccc1 (stereo not shown) [15P, 5-(7-{[3-(3-chloro-phenyl)pyrrolidin-1-yl]-carbonyl}-3-phenyl-quinoxalin-2-yl) pentanoic acid] |
| 0.1 to 2 |  | O=C(O)CCCCc1nc2cc(C(=O)NC(c3ccc(F)cc3)C(F)(F)F)ccc2nc1-c1ccccc1 (stereo not shown) [15Q, 5-(3-phenyl-7-{[2,2,2-trifluoro-1-(4-fluoro-phenyl)ethyl]carbamoyl}-quinoxalin-2-yl)pentanoic acid] |
| 0.1 to 2 |  | O=C(O)CCCCc1nc2cc(C(=O)N3CCC(Cc4ccccc4)C3)ccc2nc1-c1ccccc1 (stereo not shown) [15R, 5-{7-[(3-benzylpyrrolidin-1-yl)carbonyl]-3-phenyl-quinoxalin-2-yl}pentanoic acid] |
| 0.1 to 2 |  | O=C(O)CCCCc1nc2cc(C(=O)N3CCC(c4ccc(F)cc4)C3)ccc2nc1-c1ccccc1 (stereo not shown) [15S, 5-(7-{[3-(4-fluorophenyl)-pyrrolidin-1-yl]carbonyl}-3-phenylquinoxalin-2-yl)-pentanoic acid] |
| 0.1 to 2 |  | O=C(O)CCCCc1nc2cc(C(=O)NCc3ccc(Cl)cc3)ccc2nc1-c1ccccc1 [15T, 5-{7-[(4-chlorobenzyl)-carbamoyl]-3-phenyl-quinoxalin-2-yl} pentanoic acid] |

| Ki (rated A-E (Table A)) [nM] | Ki (values in text) [nM] | SMILES |
| --- | --- | --- |
| 2.1 to 20 |  | O=C(O)CCCCc1nc2cc(C(=O)NCc3cccc(Cl)c3)ccc2nc1-c1ccccc1 [15U, 5-{7-[(3-chlorobenzyl)carbamoyl]-3-phenylquinoxalin-2-yl}pentanoic acid] |
| 0.1 to 2 |  | O=C(O)CCCCc1nc2cc(C(=O)NCc3ccccc3Cl)ccc2nc1-c1ccccc1 [15V, 5-{7-[(2-chlorobenzyl)carbamoyl]-3-phenylquinoxalin-2-yl}pentanoic acid] |
| 0.1 to 2 |  | CC(C)(NC(=O)c1ccc2nc(-c3ccccc3)c(CCCCC(=O)O)nc2c1)c1ccccc1 [15X, 5-{7-[(1-methyl-1-phenylethyl)carbamoyl]-3-phenylquinoxalin-2-yl}pentanoic acid] |
| 0.1 to 2 |  | O=C(O)CCCCc1nc2cc(C(=O)N3CCCC(c4ccccc4)C3)ccc2nc1-c1ccccc1 (stereo not shown) [15Y, 5-{3-phenyl-7-[(3-phenylpiperidin-1-yl)carbonyl]quinoxalin-2-yl}pentanoic acid] |
| 0.1 to 2 |  | O=C(O)CCCCc1nc2cc(C(=O)NCc3ccccc3)ccc2nc1-c1ccccc1 [15Z, 5-[7-(benzylcarbamoyl)-3-phenylquinoxalin-2-yl]pentanoic acid] |
| 201 to 700 | 283 | O=C(O)CCCCc1nc2cc(C(=O)N3CC4(CCNCC4)C3)ccc2nc1-c1ccccc1 [15i, 5-[7-(2,7-diazaspiro-[3.5]non-2-ylcarbonyl)-3-phenylquinoxalin-2-yl]pentanoic acid] |
| 2.1 to 20 | 16.7 | O=C(O)CCCCc1nc2cc(C(=O)N3CCN(S(=O)(=O)c4ccccc4)CC3)ccc2nc1-c1ccccc1 [15o, 5-(3-phenyl-7-{[4-(phenylsulfonyl)piperazin-1-yl]carbonyl}quinoxalin-2-yl)pentanoic acid] |
| 0.1 to 2 |  | O=C(O)CCCCc1nc2cc(C(=O)NCc3cccc(C(F)(F)F)c3)ccc2nc1-c1ccc(Cl)cc1 [16AB, 3-(4-chlorophenyl)-7-[[[[3-(trifluoromethyl)phenyl]methyl]amino]carbonyl]-2-quinoxalinepentanoic acid] |
| 0.1 to 2 |  | O=C(O)CCCCc1nc2cc(C(=O)NCc3cccc(OC(F)(F)F)c3)ccc2nc1-c1ccc(Cl)cc1 [16AC, 3-(4-chlorophenyl)-7-[[[[3-(trifluoromethoxy)phenyl]methyl]amino]carbonyl]-2-quinoxalinepentanoic acid] |
| 0.1 to 2 |  | C[C@@H](NC(=O)c1ccc2nc(-c3ccc(Cl)cc3)c(CCCCC(=O)O)nc2c1)c1ccc(Cl)cc1 [16AD, 3-(4-chlorophenyl)-7-[[[(R)-(4-chlorophenyl)ethyl]amino]carbonyl]-2-quinoxalinepentanoic acid] |
| 0.1 to 2 |  | C[C@H](NC(=O)c1ccc2nc(-c3ccc(Cl)cc3)c(CCCCC(=O)O)nc2c1)c1ccc(Cl)cc1 [16AE, 3-(4-chlorophenyl)-7-[[[1(S)-(4-chlorophenyl)ethyl]amino]carbonyl]-2-quinoxalinepentanoic acid] |
| 0.1 to 2 |  | O=C(O)CCCCc1nc2cc(C(=O)N3CC(c4ccccc4)C3)ccc2nc1-c1ccc(Cl)cc1 [16AF, 3-(4-chlorophenyl)-7-[(3-phenyl-1-azetidinyl)carbonyl]-2-quinoxalinepentanoic acid] |
| 0.1 to 2 | 1.2 | O=C(O)CCCCc1nc2cc(C(=O)N3CCN(c4ccccc4)CC3)ccc2nc1-c1ccc(Cl)cc1 [16AG, 3-(4-chlorophenyl)-7-[(4-phenyl-1-piperazinyl)carbonyl]-2-quinoxalinepentanoic acid] |
| 2.1 to 20 |  | O=C(O)CCCCc1nc2cc(C(=O)N[C@H](c3ccccc3)C(F)(F)F)ccc2nc1-c1ccc(Cl)cc1 [16AH, 3-(4-chlorophenyl)-7-[[(2,2,2-trifluoro-1(R)-phenylethyl)amino]carbonyl]-2-quinoxalinepentanoic acid] |
| 0.1 to 2 |  | O=C(O)CCCCc1nc2cc(C(=O)N3CC=C(c4ccccc4)CC3)ccc2nc1-c1ccc(Cl)cc1 [16AJ, 3-(4-chlorophenyl)-7-[(3,6-dihydro-4-phenyl-1(2H)-pyridinyl)carbonyl]-2-quinoxalinepentanoic acid] |
| 0.1 to 2 |  | N#CC1(c2ccccc2)CCN(C(=O)c2ccc3nc(-c4ccc(Cl)cc4)c(CCCCC(=O)O)nc3c2)CC1 [16AK, 3-(4-chlorophenyl)-7-[(4-cyano-4-phenyl-1-piperidinyl)carbonyl]-2-quinoxalinepentanoic acid] |
| 0.1 to 2 |  | C[C@@H](NC(=O)c1ccc2nc(-c3ccc(Cl)cc3)c(CCCCC(=O)O)nc2c1)c1ccccc1 [16AL, 3-(4-chlorophenyl)-7-[[(1(R)-phenylethyl)amino]carbonyl]-2-quinoxalinepentanoic acid] |
| 0.1 to 2 |  | C[C@H](NC(=O)c1ccc2nc(-c3ccc(Cl)cc3)c(CCCCC(=O)O)nc2c1)c1ccccc1 [16AM, 3-(4-chlorophenyl)-7-[[(1-(S)-phenylethyl)amino]carbonyl]-2-quinoxalinepentanoic acid] |
